Experimental data reported in patent EP0476120B1, “PROCESS FOR PREPARING EQUIMOLAR SALTS OF ASPARTIC ACID AND MAGNESIUM, MAGNESIUM ASPARTATE SALT OBTAINED BY SAID PROCESS AND ITS APPLICATIONS” (LA[…] SPINDLER, priority 1990, dated 1991).
“And” between values parts separate entries of the source, which are not always exact repeats. Equal values may be shown once. Read-outs that look alike come from different tables or passages of the source.

What was measured:
souris [1] = settings: mouse; for animaux ne présentant pas de comportement anxiogène (miction, défécation): controls 20 %; for souris présentant une défécation et une miction émotionnelles: controls 85 p. 100
Description: (§1) Ces études ont été réalisées chez des souris mâles, de souche NMRI-Han, réparties au hasard en lots de 15 souris (séries traitées) et 20 souris (série contrôle).
Enfin, l'effet à l'égard des manifestations dites émotionnelles est mesuré sur la miction et la défécation au cours des 3 minutes passées dans le cylindre et permet le calcul d'une DA 50 dite "anti-émotionnelle".
(§2) Les doses ont été calculées selon une progression géométrique de base 700 (correspondant au 1/10 de la DL 50) et de raison 2, soit respectivement 175, 350, 700 et 1400 mg.kg⁻¹.
(§3) Les traitements sont réalisés 60 minutes avant le test.
(§4) Il est identique à celui décrit dans l'exemple précédent.
(§5) Les doses ont été calculées selon une progression géométrique de base 700 (correspondant au 1/10 de la DL 50) et de raison 2, soit respectivement 10,95; 21,9; 43,8; 87,5; 175; 350; 700 mg/kg. […] Les derniers traitements ont été réalisés 60 minutes avant le test.

souris [2] = settings: mouse; for nombre de redressements, Total (moyenne): 3 min in cylinder
Description: Les scores d'activité sont fonction de la surface à explorer. Ils sont également fonction de deux motivations contradictoires : la curiosité et la crainte. Il faut enfin savoir que lorsque la surface offerte permet une activité "horizontale" (marche) la curiosité parait l'emporter; par contre lorsque la surface est réduite et conduit à une activité "verticale" (redressements le long des parois d'un cylindre) il semble que la crainte anxieuse soit davantage présente et conduise à une activité soit diminuée, soit cyclique, et apparemment sans focalisation.
as §1
Au sortir de l'actimètre, les souris sont placées dans un cylindre en verre (hauteur 30 cm, diamètre 9 cm) L'exploration anxiogène a été mesurée par le nombre de redressements au cours de la première minute passée dans le cylindre, l'activité basale anxiogène étant considérée dans la même enceinte, entre 1 et 3 minutes.
as §2, §3, §4, §5

[3] = repeated daily dosing (13 days), 10.95 mg/kg P.O., last dose 60 min before test
[4] = repeated daily dosing (13 days), 21.9 mg/kg P.O., last dose 60 min before test
[5] = repeated daily dosing (13 days), 43.8 mg/kg P.O., last dose 60 min before test
[6] = repeated daily dosing (13 days), 87.5 mg/kg P.O., last dose 60 min before test
[7] = repeated daily dosing (13 days), 175 mg/kg P.O., last dose 60 min before test
[8] = repeated daily dosing (13 days), 350 mg/kg P.O., last dose 60 min before test
[9] = repeated daily dosing (13 days), 700 mg/kg P.O., last dose 60 min before test
[10] = single dose 175 mg.kg⁻¹ P.O., 60 min before test
[11] = single dose 350 mg.kg⁻¹ P.O., 60 min before test
[12] = single dose 700 mg.kg⁻¹ P.O., 60 min before test
[13] = single dose 1400 mg.kg⁻¹ P.O., 60 min before test

α-β-aspartate de magnésium
DA 50 (enceinte anxiogène, sujets ne présentant pas de comportement anxieux) (souris [1]; repeated administration over 13 days P.O., limits 11,26 - 68,66 mg/kg): 27,8 mg/kg and 28 mg/kg and 27,81 mg/kg
animaux ne présentant pas de comportement anxiogène (miction, défécation) (souris [1]; repeated dosing (13 days), 175 mg/kg P.O.): 73,3%
animaux ne présentant pas de comportement anxiogène (miction, défécation) (souris [1]; repeated dosing (13 days), 350 mg/kg P.O.): 60%
animaux ne présentant pas de comportement anxiogène (miction, défécation) (souris [1]; repeated dosing (13 days), 700 mg/kg P.O.): 66,7%
animaux ne présentant pas de comportement anxiogène (miction, défécation) (souris [1]; repeated dosing (13 days), 10,95 mg/kg P.O.): 40%
animaux ne présentant pas de comportement anxiogène (miction, défécation) (souris [1]; repeated dosing (13 days), 21,9 mg/kg P.O.): 40%
animaux ne présentant pas de comportement anxiogène (miction, défécation) (souris [1]; repeated dosing (13 days), 43,8 mg/kg P.O.): 60%
animaux ne présentant pas de comportement anxiogène (miction, défécation) (souris [1]; repeated dosing (13 days), 87,5 mg/kg P.O.): 66,7%
souris présentant une défécation et une miction émotionnelles (souris [1]; single dose 175 mg.kg⁻¹ P.O.): 40%
souris présentant une défécation et une miction émotionnelles (souris [1]; single dose 350 mg.kg⁻¹ P.O.): 53%
souris présentant une défécation et une miction émotionnelles (souris [1]; single dose 700 mg.kg⁻¹ P.O.): 27%
souris présentant une défécation et une miction émotionnelles (souris [1]; single dose 1400 mg.kg⁻¹ P.O.): 73%
DA 50 "anti-émotionnelle" (souris [1]; single dose P.O., confidence limits (5 p. 100) 160 - 2082 mg.kg⁻¹): 577 mg/kg
nombre de redressements, 1ère minute (moyenne) (souris [2]; [3]): 16
nombre de redressements, 2ème minute (moyenne) (souris [2]; [3]): 11
nombre de redressements, 3ème minute (moyenne) (souris [2]; [3]): 8
nombre de redressements, Total (moyenne) (souris [2]; [3]): 35
nombre de redressements, 1ère minute (moyenne) (souris [2]; [4]): 14
nombre de redressements, 2ème minute (moyenne) (souris [2]; [4]): 9
nombre de redressements, 3ème minute (moyenne) (souris [2]; [4]): 6
nombre de redressements, Total (moyenne) (souris [2]; [4]): 29
nombre de redressements, 1ère minute (moyenne) (souris [2]; [5]): 13
nombre de redressements, 2ème minute (moyenne) (souris [2]; [5]): 9
nombre de redressements, 3ème minute (moyenne) (souris [2]; [5]): 8
nombre de redressements, Total (moyenne) (souris [2]; [5]): 30
nombre de redressements, 1ère minute (moyenne) (souris [2]; [6]): 13
nombre de redressements, 2ème minute (moyenne) (souris [2]; [6]): 9
nombre de redressements, 3ème minute (moyenne) (souris [2]; [6]): 8
nombre de redressements, Total (moyenne) (souris [2]; [6]): 30
nombre de redressements, 1ère minute (moyenne) (souris [2]; [7]): 12
nombre de redressements, 2ème minute (moyenne) (souris [2]; [7]): 9
nombre de redressements, 3ème minute (moyenne) (souris [2]; [7]): 8
nombre de redressements, Total (moyenne) (souris [2]; [7]): 29
nombre de redressements, 1ère minute (moyenne) (souris [2]; [8]): 13
nombre de redressements, 2ème minute (moyenne) (souris [2]; [8]): 10
nombre de redressements, 3ème minute (moyenne) (souris [2]; [8]): 8
nombre de redressements, Total (moyenne) (souris [2]; [8]): 31
nombre de redressements, 1ère minute (moyenne) (souris [2]; [9]): 14
nombre de redressements, 2ème minute (moyenne) (souris [2]; [9]): 10
nombre de redressements, 3ème minute (moyenne) (souris [2]; [9]): 9
nombre de redressements, Total (moyenne) (souris [2]; [9]): 33
nombre de redressements, 1ère minute (moyenne) (souris [2]; [10]): 14
nombre de redressements, 2ème minute (moyenne) (souris [2]; [10]): 8
nombre de redressements, 3ème minute (moyenne) (souris [2]; [10]): 7
nombre de redressements, Total (moyenne) (souris [2]; [10]): 29
nombre de redressements, 1ère minute (moyenne) (souris [2]; [11]): 15
nombre de redressements, 2ème minute (moyenne) (souris [2]; [11]): 9
nombre de redressements, 3ème minute (moyenne) (souris [2]; [11]): 6
nombre de redressements, Total (moyenne) (souris [2]; [11]): 30
nombre de redressements, 1ère minute (moyenne) (souris [2]; [12]): 15
nombre de redressements, 2ème minute (moyenne) (souris [2]; [12]): augmente significativement
nombre de redressements, 3ème minute (moyenne) (souris [2]; [12]): 7
nombre de redressements, Total (moyenne) (souris [2]; [12]): 32
nombre de redressements, 2ème minute (moyenne) (souris [2]; single dose 700 mg.kg⁻¹ P.O., 60 min before test, listed as Mag): 10
nombre de redressements, 1ère minute (moyenne) (souris [2]; [13]): 15
nombre de redressements, 2ème minute (moyenne) (souris [2]; [13]): augmente significativement
nombre de redressements, 3ème minute (moyenne) (souris [2]; [13]): 8
nombre de redressements, Total (moyenne) (souris [2]; [13]): 34
nombre de redressements, 2ème minute (moyenne) (souris [2]; single dose 1400 mg.kg⁻¹ P.O., 60 min before test, listed as Mag): 11
